Source: publication PMC8682738, “Constrained peptides mimic a viral suppressor of RNA silencing” (Nucleic Acids Research, 2021)
Values joined by “and” are separate entries in the source; they are usually repeats but may differ in a detail not shown here. Equal values may be shown once. Positions of bridges follow the written chain, without caps; N, C: chain ends. Non-standard residues stand in square brackets, D forms with d. Residues, ends and D or L forms follow the SMILES beside them. *: point of attachment. FITC = O=C1OC2(c3ccc(O)cc3Oc3cc(O)ccc32)c2ccc(NC(=S)*)cc21; R8 = C=CCCCCCC[C@@](C)(N)C(=O)O; S5 = C=CCCC[C@](C)(N)C(=O)O; AEEA = NCCOCCOCC(=O)O

What was measured:
[1] = CD spectroscopy, secondary structure content; format: physicochemical; details: fluorescein-labeled peptide 75 μM, 10 mM sodium phosphate pH 7.4, CDNN/PEPFIT; for Helix (α-helicity): unbound
Experimental: Spectra of fluorescein-labeled peptides were recorded with a J-715 circular dichroism spectrometer (Jasco) using a stoppered quartz cuvette (1 mm; Hellma). Peptide samples (c = 75 μM) were prepared in buffer: 10 mM disodium hydrogen phosphate, pH 7.4. For each sample, 10 CD spectra were measured between λ = 190 and 260 nm with continuous scan mode (10 mdeg sensitivity, 1.0 nm resolution, 1.0 nm bandwidth, 2 s integration time, 50 nm/min scan rate). Obtained spectra were averaged, then subtracted from a reference buffer spectrum and smoothed using a fast Fourier transform filter (FFT filter). The mean residue ellipticity (Θ) (deg·cm^2·dmol^−1·10^4) was calculated using Formula (2) and plotted against wavelength (λ) (nm). The ratio of secondary structure elements was calculated with CDNN using the PEPFIT set of reference spectra for secondary structure determination ([45],[46]):(2) where [Θ]m = mean molar ellipticity per peptide bond (degree·cm^2·dmol^−1·10^4), Θ = measured ellipticity (degree), d = optical path length (cm), cg = mass concentration (g·l^−1), MRW = mean residue weight, M = molar mass of the peptide (g·mol^−1) and N = number of peptide bonds.

proteinase K = proteinase K (Parengyodontium album, UniProt P06873); assay: Protease stability assay; format: in vitro ADME; details: proteinase K 10 μg·ml^−1, fluorescein-labeled peptide 50 μM, 10 mM Tris pH 8.0, 150 mM NaCl, room temperature, HPLC absorbance 210 nm, exponential decay fit
proteinase K, sequence (P06873 106-384): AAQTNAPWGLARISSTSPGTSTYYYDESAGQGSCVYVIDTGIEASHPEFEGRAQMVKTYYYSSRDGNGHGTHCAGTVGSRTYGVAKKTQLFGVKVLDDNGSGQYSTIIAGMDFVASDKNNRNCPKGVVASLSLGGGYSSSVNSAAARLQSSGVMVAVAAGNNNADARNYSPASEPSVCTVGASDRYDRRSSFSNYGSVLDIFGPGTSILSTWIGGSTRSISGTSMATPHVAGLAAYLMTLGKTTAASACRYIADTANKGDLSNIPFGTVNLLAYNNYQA
Experimental: Protease stability assays were performed in analogy to a previously published protocol ([47]). Stocks of fluorescein-labeled peptides were prepared to a concentration of 55.5 μM in assay buffer (10 mM Tris, pH 8.0, 150 mM NaCl) and separately stocks of proteinase K also in assay buffer (c = 100 μg·ml^−1). To begin each experiment, peptide and proteinase K stocks were mixed (final concentrations: c = 10 μg·ml^−1 proteinase K, c = 50 μM fluorescein-labeled peptide; final volume = 500 μl) and incubated at room temperature. At each time point, 50 μl of the reaction mixture was quenched by adding 100 μl of TFA/ACN/H2O (v/v/v, 1:49:49) and subsequently incubated for 2 min on ice. Following centrifugation (15 min, 13200 rpm, 4°C), samples (45 μl) were monitored by analytical HPLC using a linear gradient of 10–60% HPLC solvent B over 20 min. The amount of remaining peptide was quantified via absorbance at λ = 210 nm (intact peptide (%)) and plotted against time (t) (h). Half-life (t1/2) was calculated by fitting the data to an exponential decay using the software Prism 5.0 (GraphPad).

pal-RNA duplex = assay: ITC of N-terminally acetylated peptides with pal-RNA duplex; format: binding
Experimental: Isothermal titration calorimetry (ITC) was conducted using a MicroCal VP-ITC (Malvern Panalytical). Before measurement, oligonucleotide and peptide samples were dissolved in PBS and degassed using a ThermoVac (Malvern Panalytical) and heated to 30°C. N-terminally acetylated peptides (c = 3–12 μM) were then transferred into the sample cell and oligonucleotides (c = 12–72 μM) were transferred into the syringe. 35 Injections per measurement were performed at 30°C (8 μl injection volume, 2 s injection time, 180 s spacing, high feedback mode) with an initial delay of 60 s and a stirring speed of 307 rpm. Measurements were performed in triplicate. Using the MicroCal LLC ITC software (Origin; OriginLab Corporation), the heat associated with each injection was calculated by integrating the area under the curve in microcalories per second [μca/s] versus time [min] for each injection and then normalized to concentration. A ‘single set of identical binding sites’ model was used to fit the binding curves from which thermodynamic binding parameters (ΔG, ΔH, ΔS, N and Kd) were obtained.

ds pal-RNA = assay: EMSA with ds pal-RNA; format: binding; details: fluorescein-labeled peptide 6 μM, RNA 3 μM, 10% native PAGE, 4°C
Experimental: Electrophoretic mobility shift assays (EMSAs) were performed using a Bio-Rad Mini-Protean gel system paired with a direct current (DC) power source (PowerPac™ HC, Bio-Rad). Typically, 6 μl solutions containing ds RNA (c = 3 μM) and fluorescein-labeled peptide (c = 6 μM) were incubated in binding buffer (10 mM Tris (pH 8.0), 0.5 mM EDTA, 12.5% glycerol and 150 mM KCl) at 4°C for 1 h. After incubation, bound RNA was resolved from peptide-free RNA using 10% non-denaturing polyacrylamide gels at 120 V in running buffer (25 mM Tris (pH 8.0), 200 mM glycine, 20 mM NaCl) at 4°C for 1 h. Visualization of fluorescent gel-bound species was conducted using a Typhoon Trio + fluorescence scanner (GE Healthcare Life Sciences). For nucleic acid visualization, gels were stained using 2 μl of SYBR™ gold nucleic acid gel dye (Molecular Probes) in 20 ml of TAE buffer (40 mM Tris, 1 mM EDTA, 20 mM acetic acid) for 45 min at RT before being visualized using a FluorChem™ gel documentation system (Alpha Innotech). To assess B3 binding to different ds RNA sequences (Supplementary Figure S20), 6 μl solutions containing hairpin RNA (c = 1 μM) and fluorescein-labeled B3 (c = 2 μM) were incubated in binding buffer (TAE and 10% glycerol) at RT for 1 h, and then resolved using 15% non-denaturing polyacrylamide gels (acrylamide/bis-acrylamide (19:1) in TAE) at 150 V in running buffer (TAE) at 4°C for 1.5 h. Visualization of fluorescent gel-bound species was conducted using a Bio-Rad ChemiDoc (Bio-Rad). Subsequently, gels were stained with SYBR™ gold nucleic acid gel dye (Invitrogen) as described above and visualized using the same imaging system. To assess B3 binding to pre–miR-21 (Supplementary Figure S24), the RNA was prepared at a fixed concentration (c = 1 μM) and incubated with varying concentrations of fluorescein-labeled B3 (c = 0–5 μM) in binding buffer (TAE and 10% glycerol) at RT for 1 h. After incubation, bound nucleic acid complexes were resolved using 15% non-denaturing polyacrylamide gels (acrylamide/bis-acrylamide (19:1) in TAE) at 150 V in running buffer (TAE) at 4°C for 1.5 h, followed by visualization and staining with SYBR™ gold nucleic acid gel dye (Invitrogen).

Row | SMILES | Random coil [1] [%] | β-Sheet [1] [%] | β-Turn [1] [%] | Helix (α-helicity) [1] | half-life t1/2 [min] | Half-life (t1/2) (proteinase K) [min] | Kd (pal-RNA duplex; N-terminally acetylated peptide, PBS pH 7.4, 30°C, single set of identical binding sites model, triplicate, errors 1σ) [nM] | fold increased affinity compared to linear peptide wt33 (pal-RNA duplex; unlabeled analogs, pal-RNA) [fold] | binding to ds pal-RNA in EMSA (ds pal-RNA)
1 | CC(C)C[C@H](NC(=O)[C@H](CCC(=O)O)NC(=O)[C@H](CO)NC(=O)[C@H](CCCNC(=N)N)NC(=O)[C@H](CCCNC(=N)N)NC(=O)[C@H](CCC(N)=O)NC(=O)[C@H](CCC(=O)O)NC(=O)[C@H](CO)NC(=O)[C@@H]1CCCN1C(=O)[C@H](CO)NC(=O)[C@H](CCCCN)NC(=O)[C@H](Cc1c[nH]cn1)NC(=O)CNC(=O)[C@H](CCCNC(=N)N)NC(=O)[C@H](CCC(=O)O)NC(=O)[C@H](CCCCN)NC(=O)[C@H](CCCNC(=N)N)NC(=O)[C@H](CC(N)=O)NC(=O)[C@]1(C)CCCC=CCCCCCC[C@@](C)(NC(=O)[C@H](CCC(N)=O)NC(=O)[C@H](CCCCN)NC(=O)[C@H](CCCCN)NC(=O)COCCOCCNC(=S)Nc2ccc3c(c2)C(=O)OC32c3ccc(O)cc3Oc3cc(O)ccc32)C(=O)N[C@@H](CCC(N)=O)C(=O)N[C@@H](CCCNC(=N)N)C(=O)N[C@@H](CCCCN)C(=O)N[C@@H](CCCNC(=N)N)C(=O)N[C@@H](Cc2c[nH]cn2)C(=O)N[C@@H](CCCCN)C(=O)N1)C(=O)N[C@@H](Cc1c[nH]c2ccccc12)C(=O)N[C@@H](Cc1c[nH]cn1)C(=O)N[C@@H](C)C(=O)N[C@@H](CCCNC(=N)N)C(N)=O [A1] ({FITC-AEEA}-KKQ[R8]QRKRHK[S5]NRKERGHKSPSEQRRSELWHAR-NH2; staple 4-11) | 51.4 | 2.9 | 9.6 | 39.1% | 3 | 2.4 | – | – | –
2 | CC(C)C[C@H](NC(=O)[C@H](CCC(=O)O)NC(=O)[C@H](CO)NC(=O)[C@H](CCCNC(=N)N)NC(=O)[C@H](CCCNC(=N)N)NC(=O)[C@H](CCC(N)=O)NC(=O)[C@H](CCC(=O)O)NC(=O)[C@H](CO)NC(=O)[C@@H]1CCCN1C(=O)[C@H](CO)NC(=O)[C@H](CCCCN)NC(=O)[C@H](Cc1c[nH]cn1)NC(=O)CNC(=O)[C@H](CCCNC(=N)N)NC(=O)[C@H](CCC(=O)O)NC(=O)[C@H](CCCCN)NC(=O)[C@H](CCCNC(=N)N)NC(=O)[C@H](CC(N)=O)NC(=O)[C@]1(C)CCCC=CCCC[C@](C)(NC(=O)[C@H](CCCNC(=N)N)NC(=O)[C@H](CCC(N)=O)NC(=O)[C@H](C)NC(=O)[C@H](CCC(N)=O)NC(=O)[C@H](CCCCN)NC(=O)[C@H](CCCCN)NC(=O)COCCOCCNC(=S)Nc2ccc3c(c2)C(=O)OC32c3ccc(O)cc3Oc3cc(O)ccc32)C(=O)N[C@@H](CCCNC(=N)N)C(=O)N[C@@H](Cc2c[nH]cn2)C(=O)N[C@@H](CCCCN)C(=O)N1)C(=O)N[C@@H](Cc1c[nH]c2ccccc12)C(=O)N[C@@H](Cc1c[nH]cn1)C(=O)N[C@@H](C)C(=O)N[C@@H](CCCNC(=N)N)C(N)=O [A2] ({FITC-AEEA}-KKQAQR[S5]RHK[S5]NRKERGHKSPSEQRRSELWHAR-NH2; staple 7-11) | 51.3 | 21.6 | 7.9 | 21.9% | 3 | 2.3 | – | – | –
3 | CC(C)C[C@H](NC(=O)[C@H](CCC(=O)O)NC(=O)[C@H](CO)NC(=O)[C@H](CCCNC(=N)N)NC(=O)[C@H](CCCNC(=N)N)NC(=O)[C@H](CCC(N)=O)NC(=O)[C@H](CCC(=O)O)NC(=O)[C@H](CO)NC(=O)[C@@H]1CCCN1C(=O)[C@H](CO)NC(=O)[C@H](CCCCN)NC(=O)[C@H](Cc1c[nH]cn1)NC(=O)CNC(=O)[C@H](CCCNC(=N)N)NC(=O)[C@]1(C)CCCC=CCCC[C@](C)(NC(=O)[C@H](CCCCN)NC(=O)[C@H](Cc2c[nH]cn2)NC(=O)[C@H](CCCNC(=N)N)NC(=O)[C@H](CCCCN)NC(=O)[C@H](CCCNC(=N)N)NC(=O)[C@H](CCC(N)=O)NC(=O)[C@H](C)NC(=O)[C@H](CCC(N)=O)NC(=O)[C@H](CCCCN)NC(=O)[C@H](CCCCN)NC(=O)COCCOCCNC(=S)Nc2ccc3c(c2)C(=O)OC32c3ccc(O)cc3Oc3cc(O)ccc32)C(=O)N[C@@H](CC(N)=O)C(=O)N[C@@H](CCCNC(=N)N)C(=O)N[C@@H](CCCCN)C(=O)N1)C(=O)N[C@@H](Cc1c[nH]c2ccccc12)C(=O)N[C@@H](Cc1c[nH]cn1)C(=O)N[C@@H](C)C(=O)N[C@@H](CCCNC(=N)N)C(N)=O [A3] ({FITC-AEEA}-KKQAQRKRHK[S5]NRK[S5]RGHKSPSEQRRSELWHAR-NH2; staple 11-15) | 52.8 | 10.6 | 10.1 | 24.0% | 3 | 3.5 | – | – | –
4 | CC(C)C[C@H](NC(=O)[C@]1(C)CCCC=CCCC[C@](C)(NC(=O)[C@H](CCC(=O)O)NC(=O)[C@H](CO)NC(=O)[C@@H]2CCCN2C(=O)[C@H](CO)NC(=O)[C@H](CCCCN)NC(=O)[C@H](Cc2c[nH]cn2)NC(=O)CNC(=O)[C@H](CCCNC(=N)N)NC(=O)[C@H](CCC(=O)O)NC(=O)[C@H](CCCCN)NC(=O)[C@H](CCCNC(=N)N)NC(=O)[C@H](CC(N)=O)NC(=O)[C@]2(C)CCCC=CCCCCCC[C@@](C)(NC(=O)[C@H](CCC(N)=O)NC(=O)[C@H](CCCCN)NC(=O)[C@H](CCCCN)NC(=O)COCCOCCNC(=S)Nc3ccc4c(c3)C(=O)OC43c4ccc(O)cc4Oc4cc(O)ccc43)C(=O)N[C@@H](CCC(N)=O)C(=O)N[C@@H](CCCNC(=N)N)C(=O)N[C@@H](CCCCN)C(=O)N[C@@H](CCCNC(=N)N)C(=O)N[C@@H](Cc3c[nH]cn3)C(=O)N[C@@H](CCCCN)C(=O)N2)C(=O)N[C@@H](CCCNC(=N)N)C(=O)N[C@@H](CCCNC(=N)N)C(=O)N[C@@H](CO)C(=O)N1)C(=O)N[C@@H](Cc1c[nH]c2ccccc12)C(=O)N[C@@H](Cc1c[nH]cn1)C(=O)N[C@@H](C)C(=O)N[C@@H](CCCNC(=N)N)C(N)=O [B1] ({FITC-AEEA}-KKQ[R8]QRKRHK[S5]NRKERGHKSPSE[S5]RRS[S5]LWHAR-NH2; staple 4-11, 24-28) | 13.8 | 19.0 | 13.1 | 81.8% and 82–85% | – | 829 | 260 | 5 | full disappearance of the ds pal-RNA band
